Assay results reported in patent publication US6635771B2, “N-benzhydryl indole compounds” (Wyeth, priority 2001, dated 2003).

target: T1, cPLA2 (Homo sapiens, UniProt P47712); assay: Coumarine Assay; type: biochemical; conditions: 60 μM 7-hydroxycoumarinyl 6-heptenoate substrate, 4 μg cPLA2, pH 7.5, fluorescence ex 360 nm / em 460 nm; read-out: Coumarin IC50
T1 sequence (P47712 1-749): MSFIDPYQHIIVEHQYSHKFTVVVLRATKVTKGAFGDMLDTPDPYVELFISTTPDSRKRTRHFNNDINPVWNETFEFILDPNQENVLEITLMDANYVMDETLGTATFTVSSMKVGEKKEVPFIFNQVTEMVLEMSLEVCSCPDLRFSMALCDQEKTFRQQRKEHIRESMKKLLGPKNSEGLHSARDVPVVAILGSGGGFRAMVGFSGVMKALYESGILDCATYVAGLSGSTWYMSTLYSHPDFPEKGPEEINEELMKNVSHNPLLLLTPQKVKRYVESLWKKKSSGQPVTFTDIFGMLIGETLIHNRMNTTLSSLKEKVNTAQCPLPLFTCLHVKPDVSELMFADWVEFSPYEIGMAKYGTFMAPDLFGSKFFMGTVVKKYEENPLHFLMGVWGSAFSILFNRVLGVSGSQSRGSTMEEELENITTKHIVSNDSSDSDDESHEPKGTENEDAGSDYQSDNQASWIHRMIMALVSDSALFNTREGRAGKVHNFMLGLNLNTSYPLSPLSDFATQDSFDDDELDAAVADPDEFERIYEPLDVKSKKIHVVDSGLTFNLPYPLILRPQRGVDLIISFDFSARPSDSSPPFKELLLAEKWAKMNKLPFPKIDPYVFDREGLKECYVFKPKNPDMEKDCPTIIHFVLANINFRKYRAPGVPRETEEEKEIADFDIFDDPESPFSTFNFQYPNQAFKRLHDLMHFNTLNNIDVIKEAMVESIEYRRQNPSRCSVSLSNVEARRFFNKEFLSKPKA

Point of comparison: `Cc1cc(C)n(CCS(=O)(=O)NCCc2c(CCOc3ccc(C(=O)O)cc3)c3cc(Cl)ccc3n2C(c2ccccc2)c2ccccc2)n1` [Example 93, 4-(2-{1-benzhydryl-5-chloro-2-[2-({[2-(3,5-dimethyl-1H-pyrazol-1-yl)ethyl]sulfonyl}amino)ethyl]-1H-indol-3-yl}ethoxy)benzoic acid], IC50 0.56 µM. Against it:
- O=C(O)c1ccc(OCCc2c(CCNS(=O)(=O)CCNC(=O)c3ccccc3C(=O)O)n(C(c3ccccc3)c3ccccc3)c3ccc(Cl)cc23)cc1 [Example 48, 2-{[(2-{[(2-{1-benzhydryl-3-[2-(4-carboxyphenoxy)ethyl]-5-chloro-1H-indol-2-yl}ethyl)amino]sulfonyl}ethyl)amino]carbonyl}benzoic acid] — 4.2-fold higher, 2.35 µM
- COc1ccccc1SCS(=O)(=O)NCCc1c(CCOc2ccc(C(=O)O)cc2)c2cc(Cl)ccc2n1C(c1ccccc1)c1ccccc1 [Example 83] — within 1.5-fold, 0.45 µM
- CC(C)S(=O)(=O)NCCc1c(CCOc2ccc(C(=O)O)cc2)c2cc(Cl)ccc2n1C(c1ccccc1)c1ccccc1 [Example 2, 4-[2-(1-Benzhydryl-5-chloro-2-{2-[(isopropylsulfonyl)amino]ethyl}-1H-indol-3-yl)ethoxy]benzoic acid] — 3.6-fold higher, 2 µM
- Cc1ccn(CCS(=O)(=O)NCCc2c(CCOc3ccc(C(=O)O)cc3)c3cc(Cl)ccc3n2C(c2ccccc2)c2ccccc2)n1 [Example 94, 4-(2-{1-benzhydryl-5-chloro-2-[2-({[2-(3-methyl-1H-pyrazol-1-yl)ethyl]sulfonyl}amino)ethyl]-1H-indol-3-yl}ethoxy)benzoic acid] — within 1.5-fold, 0.8 µM
- O=C(O)c1ccc(OCCc2c(CCNS(=O)(=O)Cc3cccnc3)n(C(c3ccccc3)c3ccccc3)c3ccc(Cl)cc23)cc1 [Example 49] — 2-fold higher, 1.1 µM
- Cc1cccc(C)c1SCS(=O)(=O)NCCc1c(CCOc2ccc(C(=O)O)cc2)c2cc(Cl)ccc2n1C(c1ccccc1)c1ccccc1 [Example 82] — within 1.5-fold, 0.5 µM
- Cc1ccccc1CS(=O)(=O)NCCc1c(CCCc2ccc(C(=O)O)cc2)c2cc(Cl)ccc2n1C(c1ccccc1)c1ccccc1 [Example 70, 4-{3-[1-Benzhydryl-5-chloro-2-(2-{[(2-methylbenzyl)sulfonyl]amino}ethyl)-1H-indol-3-yl]propyl}benzoic acid] — 3.1-fold lower, 0.18 µM
- COc1ccc(SCS(=O)(=O)NCCc2c(CCOc3ccc(C(=O)O)cc3)c3cc(Cl)ccc3n2C(c2ccccc2)c2ccccc2)cc1OC [Example 86] — within 1.5-fold, 0.6 µM
- O=C(O)c1ccc(OCCc2c(CCNS(=O)(=O)Cc3ccc([N+](=O)[O-])cc3)n(C(c3ccccc3)c3ccccc3)c3ccc(Cl)cc23)cc1 [Example 54, 4-{2-[1-benzhydryl-5-chloro-2-(2-{[(4-nitrobenzyl)sulfonyl]amino}ethyl)-1H-indol-3-yl]ethoxy}benzoic acid] — 1.8-fold lower, 0.31 µM
- O=C(O)c1ccc(OCCc2c(CCNS(=O)(=O)Cc3cc(C(F)(F)F)cc(C(F)(F)F)c3)n(C(c3ccccc3)c3ccccc3)c3ccc(Cl)cc23)cc1 [Example 24, 4-(2-{1-benzhydryl-2-[2-({[3,5-bis(trifluoromethyl)benzyl]sulfonyl}amino)ethyl]-5-chloro-1H-indol-3-yl}ethoxy)benzoic acid] — 1.6-fold lower, 0.34 µM
- O=C(O)CCc1ccc(S(=O)(=O)CCc2c(CCNS(=O)(=O)Cc3c(F)cccc3F)n(C(c3ccccc3)c3ccccc3)c3ccc(Cl)cc23)cc1 [Example 131, 3-[4-({2-[1-benzhydryl-5-chloro-2-(2-{[(2,6-difluorobenzyl)sulfonyl]amino}ethyl)-1H-indol-3-yl]ethyl}sulfonyl)phenyl]propanoic acid] — 2.8-fold lower, 0.2 µM
- O=C(O)c1ccc(OCCc2c(CCNS(=O)(=O)CCN3CCOCC3)n(C(c3ccccc3)c3ccccc3)c3ccc(Cl)cc23)cc1 [Example 87, 4-(2-{1-Benzhydryl-5-chloro-2-[2-(2-morpholin-4-ylethanesulfonylamino)-ethyl]-1H-indol-3-yl}-ethoxy)-benzoic acid] — 2.1-fold higher, 1.2 µM
- O=C(O)c1ccc(OCCc2c(CCNS(=O)(=O)Cc3cc(Cl)cc(Cl)c3)n(C(c3ccccc3)c3ccccc3)c3cc(Cl)ccc23)cc1 [Example 107, 4-[2-{1-Benzhydryl-6-chloro-2-[2-(3,5-dichloro-phenylmethanesulfonylamino)-ethyl]-1H-indol-3-yl}-ethoxy)-benzoic acid] — 1.7-fold lower, 0.33 µM
- O=C(O)c1ccc(CNCc2c(CCNS(=O)(=O)Cc3ccccc3)n(C(c3ccccc3)c3ccccc3)c3ccc(Cl)cc23)cc1 [Example 134, 4-({[(1-benzhydryl-2-{2-[(benzylsulfonyl)amino]ethyl}-5-chloro-1H-indol-3-yl)methyl]amino}methyl)benzoic acid] — higher, > 1 µM
- O=C(O)c1ccc(OCCc2c(CCNS(=O)(=O)Cc3ccc(F)cc3)n(C(c3ccccc3)c3ccccc3)c3ccc(Cl)cc23)cc1 [Example 14, 4-{2-[1-Benzhydryl-5-chloro-2-(2-{[(4-fluorobenzyl)sulfonyl]amino}-ethyl)-1H-indol-3-yl]ethoxy}benzoic acid] — within 1.5-fold, 0.8 µM
- O=C(O)c1ccc(OCCc2c(CCNS(=O)(=O)CCN3CCC4(CC3)OCCO4)n(C(c3ccccc3)c3ccccc3)c3ccc(Cl)cc23)cc1 [Example 90, 4-(2-{1-benzhydryl-5-chloro-2-[2-({[2-(1,4-dioxa-8-azaspiro[4.5]dec-8-yl)ethyl]sulfonyl}amino)ethyl]-1H-indol-3-yl}ethoxy)benzoic acid] — within 1.5-fold, 0.65 µM
- O=C(O)c1ccc(OCCc2c(CCNS(=O)(=O)CSc3cc(Cl)cc(Cl)c3)n(C(c3ccccc3)c3ccccc3)c3ccc(Cl)cc23)cc1 [Example 85] — within 1.5-fold, 0.4 µM
- O=C(O)c1ccc(CCCc2c(CCNS(=O)(=O)Cc3ccc(Cl)c(Cl)c3)n(C(c3ccccc3)c3ccccc3)c3ccccc23)cc1 [Example 127, 4-{3-[1-benzhydryl-2-(2-{[(3,4-dichlorobenzyl)sulfonyl]amino}ethyl)-1H-indol-3-yl]propyl}benzoic acid] — 2.8-fold lower, 0.2 µM
- O=C(O)c1ccc(CCCc2c(CCNS(=O)(=O)CCN3CCOCC3)n(C(c3ccccc3)c3ccccc3)c3ccc(Cl)cc23)cc1 [Example 100, 4-(3-{1-Benzhydryl-5-chloro-2-[2-(2-morpholin-4-yl-ethanesulfonylamino)-ethyl]-1H-indol-3-yl}-propyl)-benzoic acid] — 4.7-fold lower, 0.12 µM
- CS(=O)(=O)c1ccc(CS(=O)(=O)NCCc2c(CCOc3ccc(C(=O)O)cc3)c3cc(Cl)ccc3n2C(c2ccccc2)c2ccccc2)cc1 [Example 40, 4-(2-{1-Benzhydryl-5-chloro-2-[2-(4-methanesulfonyl-phenylmethanesulfonylamino)-ethyl]-1H-indol-3-yl}-ethoxy)-benzoic acid] — within 1.5-fold, 0.73 µM
- O=C(O)c1ccc(OCCc2c(CCNS(=O)(=O)Cc3ccc(Cl)cc3[N+](=O)[O-])n(C(c3ccccc3)c3ccccc3)c3ccc(Cl)cc23)cc1 [Example 32, 4-{2-[1-benzhydryl-5-chloro-2-(2-{[(4-chloro-2-nitrobenzyl)sulfonyl]amino}ethyl)-1H-indol-3-yl]ethoxy}benzoic acid] — 6.6-fold lower, 0.085 µM
- CCCCS(=O)(=O)NCCc1c(CCOc2ccc(C(=O)O)cc2)c2cc(Cl)ccc2n1C(c1ccccc1)c1ccccc1 [Example 3, 4-[2-(1-Benzhydryl-2-{2-[(butylsulfonyl)amino]ethyl}-5-chloro-1H-indol-3-yl)ethoxy]benzoic acid] — 4.5-fold higher, 2.5 µM
- O=C(O)c1ccc(OCCc2c(CCNS(=O)(=O)C(F)(F)F)n(C(c3ccccc3)c3ccccc3)c3ccc(Cl)cc23)cc1 [Example 22, 4-{2-[1-benzhydryl-5-chloro-2-(2-{[(trifluoromethyl)sulfonyl]amino}ethyl)-1H-indol-3-yl]ethoxy}benzoic acid] — 3.2-fold higher, 1.8 µM
- O=C(O)c1ccc(OCCc2c(CCNS(=O)(=O)Cc3c(F)cccc3F)n(C(c3ccccc3)c3ccccc3)c3ccc(Cl)cc23)cc1 [Example 74] — 2-fold lower, 0.28 µM
- O=C(O)c1ccc(OCCc2c(CCNS(=O)(=O)CCN3CCCCC3)n(C(c3ccccc3)c3ccccc3)c3ccc(Cl)cc23)cc1 [Example 117] — 2.9-fold higher, 1.6 µM
- N#Cc1ccccc1CS(=O)(=O)NCCc1c(CCOc2ccc(C(=O)O)cc2)c2cc(Cl)ccc2n1C(c1ccccc1)c1ccccc1 [Example 108, 4-{2-[1-Benzhydryl-5-chloro-2-(2-{[(2-cyanobenzyl)sulfonyl]amino}ethyl)-1H-indol-3-yl]ethoxy}benzoic acid] — 3.7-fold lower, 0.15 µM
- 2-(2{[(2-Aminobenzyl)sulfonyl]amino}ethyl)-4-(2-[1-benzhydryl-5-chloro-1H-indol-3-yl]ethoxy}benzoic acid [Example 16] — 1.7-fold higher, 0.98 µM
- O=C(O)c1ccc(OCCc2c(CCNS(=O)(=O)Cc3ccccc3)n(C(c3ccccc3)c3ccccc3)c3ccc(Cl)cc23)cc1 [Example 1, 4-[2-(1-Benzhydryl-2-{2[(benzylsulfonyl)amino]ethyl}-5-chloro-1H-indol-3-yl)ethoxyl]benzoic acid] — within 1.5-fold, 0.42 µM
- Cc1cc(C)n(CCS(=O)(=O)NCCc2c(CCCc3ccc(C(=O)O)cc3)c3cc(Cl)ccc3n2C(c2ccccc2)c2ccccc2)n1 [Example 102] — 2.9-fold lower, 0.19 µM
